pEC50: −log10 of the molar value. Counter-ions that a name gives are not always drawn.
Legend:
Type in all cases: cell-based
[1] = molecular target: T1, human EDG8 (S1PR5) receptor (Homo sapiens, UniProt Q9H228); assay: Aequorin assay, agonist potency, CHO-A21-EDG8#12 cells; details: agonist mode, aequorin luminescence; read-out: S1P5 EC50 range #
T1 construct: carries the transgenes human EDG8 (S1PR5) receptor (Acession number NP_110387.1); expressed in transfected cells; host or cells: CHO-A21-EDG8#12 (CHO clone co-expressing mitochondrial aequorin and chimaeric Gaqi5)
T1 sequence (Q9H228 whole entry): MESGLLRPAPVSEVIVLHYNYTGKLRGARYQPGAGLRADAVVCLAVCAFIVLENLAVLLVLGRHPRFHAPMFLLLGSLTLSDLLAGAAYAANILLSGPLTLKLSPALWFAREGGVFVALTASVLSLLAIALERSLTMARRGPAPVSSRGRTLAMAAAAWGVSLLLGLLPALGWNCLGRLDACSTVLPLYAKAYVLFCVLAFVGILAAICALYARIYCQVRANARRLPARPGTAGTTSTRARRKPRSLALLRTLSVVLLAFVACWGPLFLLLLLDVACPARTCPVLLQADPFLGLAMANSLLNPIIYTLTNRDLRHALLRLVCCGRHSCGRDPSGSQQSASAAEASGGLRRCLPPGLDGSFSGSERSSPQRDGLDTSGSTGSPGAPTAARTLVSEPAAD
Outline: (§1)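 CHO cells coexpressing receptor, mitochondrial aequorin and Gαqi5 (S1P3 pool: GNA16) were loaded overnight at RT with 5 μM coelenterazine h in 0.1% fatty-acid-free BSA buffer. Cells were injected onto compound, luminescence recorded 90 s and integrated, normalised to digitonin or 20 μM ATP; sigmoidal fit.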

[2] = molecular target: T2, human EDG1 (S1PR1) receptor (Homo sapiens, UniProt P21453); assay: Aequorin assay, agonist potency, CHO-A21-Edg1#17 cells; details: agonist mode, aequorin luminescence; read-out: S1P1 EC50
T2 construct: expressed in transfected cells; host or cells: CHO-A21-Edg1#17 (CHO clone co-expressing mitochondrial aequorin and chimaeric Gaqi5)
T2 sequence (P21453 whole entry): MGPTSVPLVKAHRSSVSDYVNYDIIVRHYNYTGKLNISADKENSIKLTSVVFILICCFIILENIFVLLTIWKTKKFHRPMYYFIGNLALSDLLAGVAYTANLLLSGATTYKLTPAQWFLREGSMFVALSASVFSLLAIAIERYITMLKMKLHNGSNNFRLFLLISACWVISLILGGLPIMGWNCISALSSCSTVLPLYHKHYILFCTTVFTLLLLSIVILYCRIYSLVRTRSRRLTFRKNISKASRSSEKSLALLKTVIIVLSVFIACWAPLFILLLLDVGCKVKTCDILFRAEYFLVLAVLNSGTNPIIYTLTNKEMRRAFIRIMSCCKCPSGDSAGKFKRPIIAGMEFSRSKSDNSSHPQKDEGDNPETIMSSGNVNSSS
Outline: as §1

[3] = molecular target: T3, human EDG3 (S1PR3) receptor (Homo sapiens, UniProt Q99500); assay: Aequorin assay, agonist potency, CHO-A2-S1P3 Mix cells; details: agonist mode, aequorin luminescence
T3 construct: expressed in transfected cells; host or cells: CHO-A2-S1P3 Mix (CHO cell pool co-expressing mitochondrial aequorin and GNA16)
T3 sequence (Q99500 whole entry): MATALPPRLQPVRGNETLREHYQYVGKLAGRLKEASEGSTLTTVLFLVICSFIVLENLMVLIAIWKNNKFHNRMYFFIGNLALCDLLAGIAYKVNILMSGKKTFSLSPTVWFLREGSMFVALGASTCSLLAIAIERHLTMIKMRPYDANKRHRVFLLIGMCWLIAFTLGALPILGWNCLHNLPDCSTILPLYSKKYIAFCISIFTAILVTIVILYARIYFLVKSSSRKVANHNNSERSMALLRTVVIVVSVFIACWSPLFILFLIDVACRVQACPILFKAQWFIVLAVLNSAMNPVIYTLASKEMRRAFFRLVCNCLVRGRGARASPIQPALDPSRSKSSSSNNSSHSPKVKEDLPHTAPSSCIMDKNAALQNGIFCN
Description: Agonistic activity was measured as described below.
Cell clone CHO-A21-Edg1#17 carries the transgenes human EDG1 (S1PR1) receptor (Accession number NP_001391.2), mitochondrially targeted Aequorin (active part corresponds to accession number 1SL8_A) and chimaeric Gaqi5=Gaq modified with the 5 C-terminal amino-acids replaced with those of the Gai protein (DCGLF). CHO-A2-S1P3 Mix is a cell pool ectopically expressing human EDG3 (S1PR3) receptor (Accession number NP_005217.2) mitochondrially targeted Aequorin (active part has a sequence similar to accession number AY601106.1) and GNA16 (Accession number NP_002059.3). Cell clone CHO-A21-EDG8#12 carries the transgenes human EDG8 (S1PR5) receptor (Acession number NP_110387.1), mitochondrially expressed Aequorin (active part corresponds to accession number 1SL8_A) and chimaeric Gaqi5 (Gaq modified to present the 5 last amino-acids of the Gai protein “DCGLF”; see above). Cells are grown to mid-log phase in culture medium (HAM's F12, 10% FBS, 100 IU/mL penicillin, 100 μg/mL streptomycin, 250 μg/mL Zeocin, 400 μg/mL G418). 18 hours prior to frozen cells preparation, the medium is changed to remove the antibiotics.
18 hours prior to the test, vials of frozen cells are quickly thawed in a 37° C. water bath, cells are recovered by centrifugation and resuspended in assay buffer (DMEM/HAM's F12 with HEPES, without phenol red+0.1% fatty acid-free BSA). Cells are gently agitated in suspension overnight at RT in presence of 5 μM of Coelenterazine h (Molecular Probes). On the day of the test, cells are diluted to their final working concentrations in assay buffer and agitated in suspension for 1 h at RT. Cells are then placed in the luminescence reader (Hamamatsu Functional Drug Screening System 6000, FDSS6000). During cells incubation, compounds are prepared in 100% DMSO, and subsequently diluted in assay buffer. Compounds are then dispensed in the assay plate (black, clear-bottom, 384-well plate). After binding of agonists to the human S1P receptor the intracellular calcium concentration increases and binding of calcium to the Aequorin/Coelenterazine complex leads to an oxidation reaction of coelenterazine, which results in the production of Aequorin, coelenteramide, CO2 and light (Dmax 469 nm). The luminescent response is dependent on the agonist concentration. For agonist testing, 30 μL of cell suspension are injected on 30 μL of test compound or reference agonist in the assay plate. The resulting emission of light is recorded for 90 seconds using the FDSS6000. Dose response curves with the reference compounds are performed before testing the compounds. S1P is the reference agonist and JTE-013 the reference antagonist for S1P2.
Luminescence data are integrated over the reading interval for agonist and antagonist modes. To standardize the emission of recorded light (determination of the “100% signal”) across plates and across different experiments, some of the wells contain 100 μM digitonin or a saturating concentration of ATP (20 μM). Plates also contain the reference agonist at a concentration equivalent to the EC80 obtained during the test validation and the EC100. Dose-response data from test compounds were analyzed with XLfit (IDBS) software using nonlinear regression applied to a sigmoidal dose-response model and the following equation: […]

[4] = molecular target: T4, S1P4 (Homo sapiens, UniProt O95977); assay: Aequorin assay, agonist potency, S1P4; details: agonist mode, aequorin luminescence
T4 sequence (O95977 1-384): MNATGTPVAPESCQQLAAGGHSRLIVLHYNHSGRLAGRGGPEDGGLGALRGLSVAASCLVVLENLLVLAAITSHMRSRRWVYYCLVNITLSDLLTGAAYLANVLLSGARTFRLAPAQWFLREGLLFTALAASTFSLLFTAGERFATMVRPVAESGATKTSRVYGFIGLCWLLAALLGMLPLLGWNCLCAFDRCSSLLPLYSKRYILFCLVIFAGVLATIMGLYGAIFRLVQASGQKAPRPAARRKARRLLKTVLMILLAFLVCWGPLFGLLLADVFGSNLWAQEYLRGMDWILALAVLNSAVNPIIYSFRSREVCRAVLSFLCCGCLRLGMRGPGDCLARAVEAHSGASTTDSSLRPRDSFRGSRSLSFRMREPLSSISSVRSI
Outline: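 Aequorin luminescence read over 90 s after adding coelenterazine h–loaded cells (5 μM, overnight, RT) to test compound in phenol red-free DMEM/F12 buffer containing 0.1% fatty acid-free BSA. Responses integrated, scaled to the 100% signal from 100 μM digitonin or 20 μM ATP, and fitted to a sigmoidal dose-response model.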

| Structure (SMILES) | pEC50 [1] | pEC50 [2] | pEC50 [3] | pEC50 [4] |
| --- | --- | --- | --- | --- |
| Cc1cccc(C)c1COc1ccc2c(c1)CC1(C2)CN(CC2(C(=O)O)CC2)C1 [Example 39, 1-((5′-((2,6-dimethylbenzyl)oxy)-1′,3′-dihydrospiro[azetidine-3,2′-inden]-1-yl)methyl)cyclopropanecarboxylic acid compound with 2,2,2-trifluoroacetic acid (1:1)] | ≥ 8.00 | < 6.00 | < 6.00 | > 6.00 |
| O=C(O)C1(CN2CC3(Cc4ccc(OCc5c(Cl)cccc5C5CC5)cc4C3)C2)CC1 [Example 44, 1-((5′-((2-chloro-6-cyclopropylbenzyl)oxy)-1′,3′-dihydrospiro[azetidine-3,2′-inden]-1-yl)methyl)cyclopropanecarboxylic acid compound with acetic acid (1:1)] | ≥ 8.00 | < 6.00 | < 6.00 | > 6.00 |
| O=C(O)C1(CN2CC3(Cc4ccc(OCc5cccc(Cl)c5)cc4C3)C2)CC1 [Example 45, 1-((5′-((3-chlorobenzyl)oxy)-1′,3′-dihydrospiro[azetidine-3,2′-inden]-1-yl)methyl)cyclopropanecarboxylic acid] | 7.00 to 8.00 | < 6.00 | < 6.00 | > 6.00 |
| O=C(O)C1(CN2CC3(Cc4ccc(OCc5c(Cl)cccc5Cl)cc4C3)C2)CC1 [Example 46, 1-((5′-((2,6-dichlorobenzyl)oxy)-1′,3′-dihydrospiro[azetidine-3,2′-inden]-1-yl)methyl)cyclopropanecarboxylic acid] | ≥ 8.00 | < 6.00 | < 6.00 | > 6.00 |
| O=C(O)C1(CN2CC3(Cc4ccc(-c5ccc(OCc6cccc(F)c6)cc5)cc4C3)C2)CC1 [Example 50, 1-((5′-(4-((3-fluorobenzyl)oxy)phenyl)-1′,3′-dihydrospiro[azetidine-3,2′-inden]-1-yl)methyl)cyclopropanecarboxylic acid] | ≥ 8.00 | < 6.00 | < 6.00 | > 6.00 |
| O=C(O)C1(CN2CC3(Cc4ccc(-c5ccc(OCc6cccc(Cl)c6)cc5)cc4C3)C2)CC1 [Example 52, 1-((5′-(4-((3-chlorobenzyl)oxy)phenyl)-1′,3′-dihydrospiro[azetidine-3,2′-inden]-1-yl)methyl)cyclopropanecarboxylic acid] | 7.00 to 8.00 | < 6.00 | < 6.00 | > 6.00 |
| O=C(O)CN1CC2(Cc3ccc(OCCc4ccccc4C(F)(F)F)cc3C2)C1 [Example 62] | ≥ 8.00 | < 6.00 | < 6.00 | > 6.00 |
| O=C(O)CN1CC2(Cc3ccc(OCCc4c(Cl)cccc4Cl)cc3C2)C1 [Example 63, 2-(5′-(2,6-dichlorophenethoxy)-1′,3′-dihydrospiro[azetidine-3,2′-inden]-1-yl)acetic acid] | ≥ 8.00 | < 6.00 | < 6.00 | > 6.00 |
| O=C(O)CN1CC2(Cc3ccc(OCc4c(Cl)cccc4Cl)cc3C2)C1 [Example 109, 2-(5′-((2,6-dichlorobenzyl)oxy)-1′,3′-dihydrospiro[azetidine-3,2′-inden]-1-yl)acetic acid] | ≥ 8.00 | < 6.00 | < 6.00 | > 6.00 |
| O=C(O)CN1CC2(Cc3ccc(OCc4c(F)cccc4C4CC4)cc3C2)C1 [Example 110, 2-(5′-((2-cyclopropyl-6-fluorobenzyl)oxy)-1′,3′-dihydrospiro[azetidine-3,2′-inden]-1-yl)acetic acid] | ≥ 8.00 | < 6.00 | < 6.00 | > 6.00 |
| O=C(O)CN1CC2(Cc3ccc(OCc4ccccc4C4CC4)cc3C2)C1 [Example 111, 2-(5′-((2-cyclopropylbenzyl)oxy)-1′,3′-dihydrospiro[azetidine-3,2′-inden]-1-yl)acetic acid] | ≥ 8.00 | < 6.00 | < 6.00 | > 6.00 |
| CCc1cccc(F)c1COc1ccc2c(c1)CC1(CCN(CC(=O)O)CC1)C2 [Example 159, 2-(5-((2-ethyl-6-fluorobenzyl)oxy)-1,3-dihydrospiro[indene-2,4′-piperidin]-1′-yl)acetic acid hydrochloride] | ≥ 8.00 | < 6.00 | < 6.00 | > 6.00 |

Other lines, results leading:

| pEC50 [1] | pEC50 [2] | pEC50 [3] | pEC50 [4] | Structure (SMILES) |
| --- | --- | --- | --- | --- |
| ≥ 8.00 | < 6.00 | < 6.00 | > 6.00 | CCc1cccc(Cl)c1COc1ccc2c(c1)CC1(C2)CN(CC2(C(=O)O)CC2)C1 [Example 28, 1-((5′-((2-chloro-6-ethylbenzyl)oxy)-1′,3′-dihydrospiro[azetidine-3,2′-inden]-1-yl)methyl)cyclopropanecarboxylic acid] |
| 5.00 to 6.00 | < 6.00 | < 6.00 | < 6.00 | O=C(O)C1(CN2CC3(Cc4ccc(OCc5ccccc5)cc4C3)C2)CC1 [Example 29, 1-((5′-(benzyloxy)-1′,3′-dihydrospiro[azetidine-3,2′-inden]-1-yl)methyl)cyclopropanecarboxylic acid] |
| 7.00 to 8.00 | < 6.00 | < 6.00 | < 6.00 | O=C(O)C1(CN2CC3(Cc4ccc(-c5ccc(OCC6CCCCC6)cc5)cc4C3)C2)CC1 [Example 51, 1-((5′-(4-(cyclohexylmethoxy)phenyl)-1′,3′-dihydrospiro[azetidine-3,2′-inden]-1-yl)methyl)cyclopropanecarboxylic acid] |
| ≥ 8.00 | < 6.00 | < 6.00 | > 6.00 | O=C(O)C1(CN2CC3(Cc4ccc(OCCc5c(Cl)cccc5Cl)cc4C3)C2)CC1 [Example 59, 1-((5′-(2,6-dichlorophenethoxy)-1′,3′-dihydrospiro[azetidine-3,2′-inden]-1-yl)methyl)cyclopropanecarboxylic acid] |
| 7.00 to 8.00 | < 6.00 | < 6.00 | < 6.00 | O=C(O)C1(CN2CC3(Cc4ccc(-c5ccc(OCc6ccc(Cl)cc6)cc5)cc4C3)C2)CC1 [Example 108, 1-((5′-(4-((4-chlorobenzyl)oxy)phenyl)-1′,3′-dihydrospiro[azetidine-3,2′-inden]-1-yl)methyl)cyclopropanecarboxylic acid] |
